# Reference: patent US20120157466A1, “HETEROCYCLIC COMPOUNDS WITH CXCR3 ANTAGONIST ACTIVITY” (priority 2007, published 2012)
# Like-named read-outs stand apart in the source and are kept apart here.
# Biological target: T1, human CXCR3 (N-delta 4) (Homo sapiens, UniProt P49682)
# T1 construct: CD8 leader (N); Flag tag; expressed in transfected cells; membrane preparation
# T1 sequence (P49682 5-368 limits assumed): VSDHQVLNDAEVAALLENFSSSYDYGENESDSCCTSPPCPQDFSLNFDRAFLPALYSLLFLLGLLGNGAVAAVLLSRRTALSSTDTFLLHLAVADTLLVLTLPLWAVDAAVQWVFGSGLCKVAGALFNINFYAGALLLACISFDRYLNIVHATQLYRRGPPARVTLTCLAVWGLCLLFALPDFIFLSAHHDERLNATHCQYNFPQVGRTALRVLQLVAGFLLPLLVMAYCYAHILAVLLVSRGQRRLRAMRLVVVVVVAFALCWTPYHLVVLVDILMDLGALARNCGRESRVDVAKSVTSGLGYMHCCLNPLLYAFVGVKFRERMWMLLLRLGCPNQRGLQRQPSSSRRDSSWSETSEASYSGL
# Experiment: Human CXCR3 (N-delta 4) Scintillation Proximity Assay (SPA), [125I] IP-10 binding
# Excerpt: The inventive compounds can readily be evaluated to determine activity at The CXCR3 receptors by known methods, such as, for example, Development of Human CXCR3 (N-delta 4) Binding Assay.
# Cloning and Expression of Human CXCR3 (N-delta 4):
# The DNA encoding human CXCR3 was cloned by PCR using human genomic DNA (Promega, Madison, Wis.) as a template. The PCR primers were designed based on the published sequence of human orphan receptor GPR9 (1) with incorporated restriction sites, a Kozak consensus sequence, CD8 leader and Flag tag. The PCR product was subcloned into the mammalian expression vector pME18Sneo, a derivative of the SR-alpha expression vector (designated as pME18Sneo-hCXCR3 (N-delta 4).
# IL-3-dependent mouse pro-B cells Ba/F3 were transfected by electroporation in 0.4 ml Dulbecco's PBS containing 4×10^6 cells with 20 μg of pME18Sneo-hCXCR3 (N-delta 4) plasmid DNA. Cells were pulsed at 400 Volts, 100 OHMs, 960 μFd. The transfected cells were under selection with 1 mg/ml G418 (Life Technologies, Gaithersburg, Md.). G418-resistant Ba/F3 clones were screened for CXCR3 expression by specific binding of [^125I] IP-10 (NEN Life Science Products, Boston, Mass.).
# Preparation of Ba/F3-hCXCR3 (N-delta 4) Membranes
# Ba/F3 cells expressing human CXCR3 (N-delta 4) were pelleted and resuspended in the lysis buffer containing 10 mM HEPES, pH 7.5 and Complete protease inhibitors (1 tablet per 100 ml) (Boehringer Mannheim, Indianapolis, Ind.) at a cell density of 20×10^6 cells per ml. After 5 minutes incubation on ice, cells were transferred to 4639 cell disruption bomb (Parr Instrument, Moline, Ill.) and applied with 1,500 psi of nitrogen for 30 minutes on ice. Large cellular debris was removed by centrifugation at 1,000×g. Cell membrane in the supernatant was sedimented at 100,000×g. The membrane was resuspended in the lysis buffer supplemented with 10% sucrose and stored at −80° C. Total protein concentration of the membrane was determined by BCA method from Pierce (Rockford, Ill.).
# Human CXCR3 (N-delta 4) Scintillation Proximity Assay (SPA)
# For each assay point, 2 μg of membrane was preincubated for 1 hr with 300 μg wheat germ agglutinin (WGA) coated SPA beads (Amersham, Arlington Heights, Ill.) in the binding buffer (50 mM HEPES, 1 mM CaCl2, 5 mM MgCl2, 125 mM NaCl, 0.002% NaN3, 1.0% BSA) at room temperature. The beads were spun down, washed once, resuspended in the binding buffer and transferred to a 96-well Isoplate (Wallac, Gaithersburg, Md.). 25 pM of [^125I] IP-10 with tested compounds in a series of titration were added to start the reaction. After 3 hr reaction at room temperature, the amount of [^125I] IP-10 bound to the SPA beads was determined with a Wallac 1450 Microbeta counter.
# [1] = human CXCR3, Ba/F3-hCXCR3 (N-delta 4) membranes, 25 pM [125I] IP-10, read-out: IC50 rating (human)
# [2] = numerical IC50 values of representative compounds, read-out: IC50
SMILES,IC50 [1],IC50 [2]
O=C(NCc1ccc(F)c(F)c1)c1cnc(N2CCN(C3CCN(Cc4ccc(Cl)cc4)CC3)CC2)nc1C(F)(F)F [Compound 2],> 100 nM,–
O=C(NCc1ccc(F)c(F)c1)c1cnc(N2CCN(C3CCN(C(=O)c4ccc(Cl)cc4)CC3)CC2)nc1C(F)(F)F [Compound 3],> 100 nM,–
C[C@H]1CN(c2nccc(C(F)(F)F)n2)CCN1C1CCN(Cc2ccc(Cl)cc2)CC1 [Compound 5],> 100 nM,–
CC[C@H]1CN(c2nc(Cl)c3nc[nH]c3n2)CCN1C1CCN(Cc2ccc(Cl)cc2F)CC1 [Compound 7],> 100 nM,–
CCNC(=O)c1cc(C)nc(N2CCN(C3CCN(Cc4ccc(Cl)cc4)CC3)[C@@H](CC)C2)n1 [Compound 8],> 100 nM,–
CC[C@H]1CN(c2nc3ncccc3c(=O)n2C)CCN1C1CCN(C(=O)c2ccc(Cl)cc2)CC1 [Compound 9],25 to 100 nM,–
CC[C@H]1CN(c2nc3ccccc3n2C)CCN1C1CCN(Cc2ccc(Cl)cc2F)CC1 [Compound 10],> 100 nM,–
CC[C@H]1CN(c2nc3ncccc3c(=O)n2C2CC2)CCN1C1CCN(C(=O)c2ccc(Cl)cc2)CC1 [Compound 11],25 to 100 nM,–
CC[C@H]1CN(c2nc3ncccc3c(=O)n2C2CC2)CCN1C1CCN(Cc2ccc(Cl)cc2)CC1 [Compound 12],< 25 nM,1.9 nM
CC[C@H]1CN(c2nc3ncccc3c(=O)n2C2CC2)CCN1C1CCN(Cc2ccc(OC(F)(F)F)cc2)CC1 [Compound 13],< 25 nM,2.8 nM
CC[C@H]1CN(c2nc3ncccc3c(=O)n2C2CC2)CCN1C1CCN(Cc2ccc(C(F)(F)F)cc2)CC1 [Compound 14],< 25 nM,5.6 nM
CC[C@H]1CN(c2nc3ncccc3c(=O)n2C2CC2)CCN1C1CCN(Cc2ccc(Cl)c(F)c2)CC1 [Compound 15],< 25 nM,1.8 nM
CC[C@H]1CN(c2nc3ncccc3c(=O)n2C2CC2)CCN1C1CCN(Cc2ccc(F)c(F)c2)CC1 [Compound 16],< 25 nM,–
CC[C@H]1CN(c2nc3ncccc3c(=O)n2C2CC2)CCN1C1CCN(Cc2ccc(Cl)cc2F)CC1 [Compound 17],< 25 nM,2.5 nM
CC[C@H]1CN(c2nc3ncccc3c(=O)n2C2CC2)CCN1C1CCN(Cc2ccc(C#N)cc2)CC1 [Compound 18],< 25 nM,–
CC[C@H]1CN(c2nc3ncccc3c(=O)n2C)CCN1C1CCN(C(=O)c2ccc(Cl)nc2N)CC1 [Compound 19],> 100 nM,–
CC[C@H]1CN(c2nc3ncccc3c(=O)n2C2CC2)CCN1C1CCN(C(=O)c2ccc(Cl)nc2N)CC1 [Compound 20],25 to 100 nM,–
CC[C@H]1CN(c2nc3ncccc3c(=O)n2C)CCN1C1CCN(Cc2ccc(Cl)cc2)CC1 [Compound 21],< 25 nM,–
CC[C@H]1CN(c2nc3ncccc3c(=O)n2C)CCN1C1CCN(Cc2ccc(OC(F)(F)F)cc2)CC1 [Compound 22],< 25 nM,–
CC[C@H]1CN(c2nc3ncccc3c(=O)n2C)[C@H](C)CN1C1CCN(C(=O)c2ccc(Cl)cc2)CC1 [Compound 23],> 100 nM,–
